Measurements published in patent US20120196899A1, “METHODS AND PRODUCTS FOR TREATING INFLAMMATION” (Rock Creek Pharmaceuticals, Inc., priority 2010, published 2012).
Several values for one entry are separate records, joined by “and”; a condition that tells them apart may be missing. Identical values can stand only once.

Assays:
[1] = Clinical chemistry, day 15; format: in vivo, Sprague-Dawley rats
Description: On day 15, urine was collected on all surviving animals for urinalysis. The animals were euthanized and bled via cardiac puncture. Blood was collected for hematology, clinical chemistry, and coagulation analysis. Tissues were collected, weighed, and stored in 10% neutral-buffered formalin for possible future analysis.

HEK293 = experiment: LDH cytotoxicity assay on supernatants of the treated cells; format: cell-based, Human
Description: Cytotoxicity assays using the supernatants from the treated cells were conducted using an LDH Cytotoxicity Detection Kit (Roche) according to the manufacturer's instructions.

[2] = anatabine 0.75 mg/kg, female rats, individual animals
[3] = anatabine 0.75 mg/kg, male rats, individual animals

In the case of `C1=CCC(c2cccnc2)NC1` (racemic) [Anatabine, 1,2,3,6-tetrahydro-[2,3′]bipyridinyl], the ALT [1, 2] was 63 IU/L and 49 IU/L (2×) and 55 IU/L and 57 IU/L, the AST [1, 2] was 95 IU/L and 69 IU/L and 76 IU/L and 54 IU/L and 72 IU/L and the BUN [1, 2] was 15 mg/dL (3×) and 16 mg/dL (2×). For the same molecule, the CHLORIDE [1, 2] was 97 mEq/L (2×) and 96 mEq/L and 99 mEq/L and 101 mEq/L, the CHOLESTEROL [1, 2] was 66 mg/dL and 64 mg/dL and 63 mg/dL and 69 mg/dL and 87 mg/dL and the CREATININE [1, 2] was 0.5 mg/dL (2×) and 0.4 mg/dL (3×). The “DIR BILIRUBIN” value [1, 2] was 0 mg/dL, the GLOBULIN [1, 2] was 2.7 g/dL and 3 g/dL (2×) and the GLUCOSE [1, 2] was 237 mg/dL and 247 mg/dL and 217 mg/dL. The PHOSPHORUS [1, 2] was 9.7 mg/dL and 7.7 mg/dL and 9.6 mg/dL and 9.2 mg/dL and 7 mg/dL, the POTASSIUM [1, 2] was 5.5 mEq/L and 5.9 mEq/L and 6 mEq/L and 5.7 mEq/L and 6.3 mEq/L and the SODIUM [1, 2] was 145 mEq/L (2×) and 144 mEq/L (2×) and 147 mEq/L. For the same molecule, the “TOT BILIRUBIN” value [1, 2] was 0 mg/dL, the “TOT PROTEIN” value [1, 2] was 6.3 g/dL (2×) and 6.2 g/dL and 6.6 g/dL and 6.5 g/dL and the ALBUMIN [1, 3] was 3.4 g/dL (2×) and 3.1 g/dL and 3.2 g/dL and 3.3 g/dL. For the same molecule, the “ALK PHOSPHATASE” value [1, 3] was 479 IU/L and 297 IU/L and 325 IU/L and 337 IU/L and 416 IU/L, the ALT [1, 3] was 75 IU/L and 57 IU/L and 65 IU/L and 50 IU/L and 87 IU/L and the AST [1, 3] was 103 IU/L and 66 IU/L and 97 IU/L and 90 IU/L and 92 IU/L. For the same molecule, the BUN [1, 3] was 15 mg/dL and 18 mg/dL and 12 mg/dL and 17 mg/dL and 21 mg/dL, the CHLORIDE [1, 3] was 98 mEq/L and 99 mEq/L (2×) and 100 mEq/L and 97 mEq/L and the CHOLESTEROL [1, 3] was 69 mg/dL (2×) and 60 mg/dL and 54 mg/dL and 62 mg/dL. The CREATININE [1, 3] was 0.4 mg/dL (3×) and 0.3 mg/dL (2×), the “DIR BILIRUBIN” value [1, 3] was 0 mg/dL (4×) and 0.1 mg/dL and the GLOBULIN [1, 3] was 2.6 g/dL and 2.7 g/dL and 2.9 g/dL. For the same molecule, the GLUCOSE [1, 3] was 222 mg/dL and 160 mg/dL and 198 mg/dL, the PHOSPHORUS [1, 3] was 11 mg/dL and 10.7 mg/dL and 10 mg/dL and 10.6 mg/dL and the POTASSIUM [1, 3] was 6.3 mEq/L (2×) and 5.4 mEq/L and 6 mEq/L and 6.6 mEq/L. For the same molecule, the SODIUM [1, 3] was 147 mEq/L and 150 mEq/L, the “TOT BILIRUBIN” value [1, 3] was 0 mg/dL (4×) and 0.1 mg/dL and the “TOT PROTEIN” value [1, 3] was 6.2 g/dL and 5.7 g/dL and 5.9 g/dL and 6.1 g/dL and 6.3 g/dL. The albumin levels ([1]; anatabine: males 0.75 and […], females 0.1 and 0.75 mg/kg) was “slight increases in albumin levels”, the ALBUMIN ([1]; female, 0.1 mg/kg, group mean) was 3.62 g/dL and the “ALK PHOSPHATASE” value ([1]; female, 0.1 mg/kg, group mean) was 248.40 IU/L. For the same molecule, the ALT ([1]; female, 0.1 mg/kg, group mean) was 49.60 IU/L, the AST ([1]; female, 0.1 mg/kg, group mean) was 77.00 IU/L and the “DIR BILIRUBIN” value ([1]; female, 0.1 mg/kg, group mean) was 0.00 mg/dL. The GLOBULIN ([1]; female, 0.1 mg/kg, group mean) was 3.02 g/dL, the “TOT BILIRUBIN” value ([1]; female, 0.1 mg/kg, group mean) was 0.00 mg/dL and the “TOT PROTEIN” value ([1]; female, 0.1 mg/kg, group mean) was 6.64 g/dL. For the same molecule, the ALBUMIN ([1]; female, 0.75 mg/kg, group mean) was 3.52 g/dL, the “ALK PHOSPHATASE” value ([1]; female, 0.75 mg/kg, group mean) was 158.00 IU/L and the ALT ([1]; female, 0.75 mg/kg, group mean) was 54.60 IU/L. The AST ([1]; female, 0.75 mg/kg, group mean) was 73.20 IU/L, the BUN ([1]; female, 0.75 mg/kg, group mean) was 15.40 mg/dL and the “DIR BILIRUBIN” value ([1]; female, 0.75 mg/kg, group mean) was 0.00 mg/dL. The GLOBULIN ([1]; female, 0.75 mg/kg, group mean) was 2.86 g/dL, the “TOT BILIRUBIN” value ([1]; female, 0.75 mg/kg, group mean) was 0.00 mg/dL and the “TOT PROTEIN” value ([1]; female, 0.75 mg/kg, group mean) was 6.38 g/dL. For the same molecule, the ALBUMIN ([1]; male, 0.1 mg/kg, group mean) was 3.24 g/dL, the “ALK PHOSPHATASE” value ([1]; male, 0.1 mg/kg, group mean) was 407.40 IU/L and the ALT ([1]; male, 0.1 mg/kg, group mean) was 70.60 IU/L. For the same molecule, the AST ([1]; male, 0.1 mg/kg, group mean) was 96.00 IU/L, the BUN ([1]; male, 0.1 mg/kg, group mean) was 18.00 mg/dL and the “DIR BILIRUBIN” value ([1]; male, 0.1 mg/kg, group mean) was 0.00 mg/dL. The GLOBULIN ([1]; male, 0.1 mg/kg, group mean) was 2.86 g/dL, the “TOT BILIRUBIN” value ([1]; male, 0.1 mg/kg, group mean) was 0.00 mg/dL and the “TOT PROTEIN” value ([1]; male, 0.1 mg/kg, group mean) was 6.10 g/dL. For the same molecule, the ALBUMIN ([1]; male, 0.75 mg/kg, group mean) was 3.28 g/dL, the “ALK PHOSPHATASE” value ([1]; male, 0.75 mg/kg, group mean) was 370.80 IU/L and the ALT ([1]; male, 0.75 mg/kg, group mean) was 66.80 IU/L. The AST ([1]; male, 0.75 mg/kg, group mean) was 89.60 IU/L, the “DIR BILIRUBIN” value ([1]; male, 0.75 mg/kg, group mean) was 0.02 mg/dL and the “TOT BILIRUBIN” value ([1]; male, 0.75 mg/kg, group mean) was 0.02 mg/dL. The “TOT PROTEIN” value ([1]; male, 0.75 mg/kg, group mean) was 6.04 g/dL, the globulins ([1]; males, all anatabine dose levels, nicotine 0.75 mg/kg) was “marginally higher” and the “cytotoxicity (LDH release)” value (HEK293) was “without cellular toxicity”.
